Source: US6448442B1, “Contrast media” (Amersham Health AS, priority 1999, dated 2002)
Like-named read-outs stand apart in the source and are kept apart here.

Legend:
[1] = Viscosity in aqueous solution at 20° C. (Example 82, Tables 1 and 2); assay type: physicochemical; conditions: for Viscosity at 400 mgI/ml (CALCULATED): calculated for 400 mgI/ml; for Viscosity 350 mgI/ml (CALCULATED): calculated for 350 mgI/ml
Procedure: The viscosities in aqueous solution at 20° C. for some further compounds described above were determined and are listed in Table 2. […]

[2] = Solubility (remark in Table 2); assay type: physicochemical; conditions: aqueous solution, no viscosity given
[3] = Viscosity at 37° C. (Table 3); assay type: physicochemical; conditions: for Viscosity at 350 mgI/ml (CALCULATED): calculated for 350 mgI/ml
[4] = Determination of viscosity (Example 121, flow time in syringe against reference sample); assay type: physicochemical; conditions: 350 mgI/ml, 20° C.
Procedure: The apparatus consisted of a thermostated 10 μl graduated sample syringe connected to a conical shaped 100 μl sample vial. The syringe needle as well as a probe for temperature measurements (±0.2° C.) was inserted through an airtight septum at the top of the vial. Through the septum was also inserted a small tubing connected to an air syringe via a PTFE tubing.
To determine viscosity, 15≧75 μl of the sample liquid was placed at the bottom of the sample vial. The liquid was forced up into the sample syringe by a slight over pressure generated manually by the air syringe. When the syringe was almost filled, the over pressure was released so the liquid, forced only by gravity, could flow freely out from the syringe back into the vial. The time for the liquid surface to pass between the marks of e.g. 5 and 10 μl in the syringe was measured […]
The viscosity is calculated as follows: […]
ηS=Viscosity of the sample
ηR=Viscosity of a reference sample with known viscosity and with similar composition as the sample e.g. Iohexol or Iodixanol dS=Density of sample solution dR=Density of reference solution tS=Average time for sample surface to pass between two marks in the syringe tR=Corresponding time for reference sample
The results of these determinations of viscosity for various of the present Examples and two commercially available X-ray contrast media are shown in Table 1′ below. In all cases, the values refer to concentrations of 350 mgI/ml at a temperature of 20° C.

[5] = 350 mgI/ml, 20° C., data from literature; cited from earlier work

## CC(O)C(=O)Nc1c(I)c(CO)c(I)c(C(=O)N(CC(O)CO)CC(O)CO)c1I (centres unmarked) [Example 69, 5-(2-Hydroxypropionylamino)-3-hydroxymethyl-N,N-bis-(2,3-dihydroxypropyl)-2,4,6-triiodobenzamide]
[1]
  Viscosity at 400 mgI/ml (CALCULATED): 17.0 mPas
[1]; concentration 417 mgI/ml
  Viscosity 20° C.: 21 mPas

## O=C(c1c(I)c(CO)c(I)c(N2CCCC(O)C2=O)c1I)N(CC(O)CO)CC(O)CO (centres unmarked) [Example 70, 5-(3-Hydroxy-2-oxo-1-piperidinyl)-3-hydroxymethyl-N,N-bis-(2,3-dihydroxypropyl)-2,4,6-triiodobenzamide]
[1]
  Viscosity at 400 mgI/ml (CALCULATED): 27.8 mPas
[1]; concentration 361 mgI/ml
  Viscosity 20° C.: 16 mPas

## O=C(CO)Nc1c(I)c(CC(O)CO)c(I)c(NC(=O)CO)c1I (centres unmarked) [Example 71, 3,5-Bis-(Hydroxyacetamido)-2,4,6-triiodo-(2,3-dihydroxypropyl)benzene]
[1]
  Viscosity 350 mgI/ml (CALCULATED): 6.0 mPas
  Viscosity at 400 mgI/ml (CALCULATED): 8.8 mPas
[1]; concentration 455 mgI/ml
  Viscosity 20° C.: 14 mPas

## O=C(CO)Nc1c(I)c(CC(O)CO)c(I)c(N(CCO)C(=O)CO)c1I (centres unmarked) [Example 72, 5-Hydroxyacetamido-3-[N-(2-hydroxyethyl)-hydroxyacetamido]-2,4,6-triiodo-(2,3-dihydroxypropyl)benzene]
[1]
  Viscosity 350 mgI/ml (CALCULATED): 7.2 mPas
  Viscosity at 400 mgI/ml (CALCULATED): 11.0 mPas
[1]; concentration 432 mgI/ml
  Viscosity 20° C.: 15 mPas

## O=C(CO)N(CCO)c1c(I)c(CC(O)CO)c(I)c(N(CCO)C(=O)CO)c1I (centres unmarked) [Example 73, 3,5-Bis-[N,N′-(2-hydroxyethyl)-hydroxyacetamido]-2,4,6-triiodo-(2,3-dihydroxypropyl)benzene]
[1]
  Viscosity 350 mgI/ml (CALCULATED): 6.7 mPas
  Viscosity at 400 mgI/ml (CALCULATED): 10.4 mPas
[1]; concentration 396 mgI/ml
  Viscosity 20° C.: 10 mPas

## O=C(CO)Nc1c(I)c(CC(O)CO)c(I)c(N(CC(O)CO)C(=O)CO)c1I (centres unmarked) [Example 74, 5-Hydroxyacetamido-3-[N-(2,3-dihydroxypropyl)-hydroxyacetamido]-2,4,6-triiodo-(2,3-dihydroxypropyl)benzene]
[1]
  Viscosity 350 mgI/ml (CALCULATED): 9.3 mPas
  Viscosity at 400 mgI/ml (CALCULATED): 15.8 mPas
[1]; concentration 399 mgI/ml
  Viscosity 20° C.: 16 mPas

## O=C(CO)N(CC(O)CO)c1c(I)c(CC(O)CO)c(I)c(N(CC(O)CO)C(=O)CO)c1I (centres unmarked) [Example 75, 3,5-Bis-[N,N′-(2,3-dihydroxypropyl)-hydroxyacetamido]-2,4,6-triiodo-(2,3-dihydroxypropyl)benzene]
[1]
  Viscosity 350 mgI/ml (CALCULATED): 14.6 mPas
  Viscosity at 400 mgI/ml (CALCULATED): 28.4 mPas
[1]; concentration 359 mgI/ml
  Viscosity 20° C.: 16 mPas

## OCc1cc(OCC(O)CO)c(I)c(OCC(O)CO)c1I (centres unmarked) [Example 78, 3,5-Bis-(2,3-dihydroxypropyloxy)-2,4-diiodobenzyl alcohol]
[2]
  solubility: low solubility

## O=C(Nc1c(I)c(CO)c(I)c(NC(=O)C(O)C(O)CO)c1I)C(O)C(O)CO (centres unmarked) [Example 79, N,N′-Bis-(2,3,4-trihydroxybutanoyl)-3,5-diamino-2,4,6-triiodobenzyl alcohol]
[1]
  Viscosity 350 mgI/ml (CALCULATED): 10.4 mPas
  Viscosity at 400 mgI/ml (CALCULATED): 17.2 mPas
[1]; concentration 379 mgI/ml
  Viscosity 20° C.: 14.4 mPas
[3]; 379 mgI/ml
  Viscosity 37° C.: 6.9 mPa·s
[3]
  Viscosity at 350 mgI/ml (CALCULATED): 5.9 mPa·s

## O=C(NCC(O)CO)c1c(I)c(CO)c(I)c(NC(=O)C(O)C(O)CO)c1I (centres unmarked) [Example 80, 5-[N′-(2,3,4-Trihydroxybutanoyl)amino]-3-hydroxymethyl-N-(2,3-dihydroxypropyl)-2,4,6-triiodobenzamide]
[1]
  Viscosity 350 mgI/ml (CALCULATED): 9.4 mPas
  Viscosity at 400 mgI/ml (CALCULATED): 14.8 mPas
[1]; concentration 444 mgI/ml
  Viscosity 20° C.: 23 mPas
[3]; 444 mgI/ml
  Viscosity 37° C.: 11 mPa·s
[3]
  Viscosity at 350 mgI/ml (CALCULATED): 5.2 mPa·s

## O=C(NC(CO)C(O)CO)c1c(I)c(CO)c(I)c(NC(=O)C(O)C(O)CO)c1I (centres unmarked) [Example 81, 5-[N′-(2,3,4-Trihydroxybutanoyl)-amino]-3-hydroxymethyl-N-(1,3,4-trihydroxybut-2-yl)-2,4,6-triiodobenzamide]
[1]
  Viscosity 350 mgI/ml (CALCULATED): 12.2 mPas
  Viscosity at 400 mgI/ml (CALCULATED): 21.5 mPas
[1]; concentration 376 mgI/ml
  Viscosity 20° C.: 16.2 mPas
[3]; 376 mgI/ml
  Viscosity 37° C.: 8.9 mPa·s
[3]
  Viscosity at 350 mgI/ml (CALCULATED): 6.1 mPa·s

## Nc1c(I)c(NC(=O)CO)c(I)c(C(O)C(=O)NC(=O)C(O)CO)c1I (centres unmarked) [Example 98, N-(2,3-Dihydroxypropionyl)-N′-hydroxyacetyl-3,5-diamino-2,4,6-triiodomandeloamide]
[4]
  Viscosity: 6.9 mPas

## Nc1c(I)c(NC(=O)C(O)CO)c(I)c(C(O)C(=O)NC(=O)C(O)CO)c1I (centres unmarked) [Example 99, N,N′-Bis(2,3-Dihydroxypropionyl)-3,5-diamino-2,4,6-triiodomandeloamide]
[4]
  Viscosity: 7.4 mPas

## NC(=O)C(O)c1c(I)c(NC(=O)[C@H](O)[C@@H](O)CO)c(I)c(NC(=O)[C@H](O)[C@@H](O)CO)c1I (stereo partly drawn) [Example 104, N,N′-Bis(2R,3S,4-trihydroxybutyryl)-3,5-diamino-2,4,6-triiodomandeloamide]
[4]
  Viscosity: 17.0 mPas

## NC(=O)C(O)c1c(I)c(NC(=O)CO)c(I)c(NC(=O)[C@H](O)[C@H](O)CO)c1I (stereo partly drawn) [Example 106, N-(2R,3R,4-Trihydroxybutyryl)-N′-hydroxyacetyl-3,5-diamino-2,4,6-triiodomandeloamide]
[4]
  Viscosity: 8.8 mPas

## CC1(C)OCC(CNC(=O)c2c(I)c(NC(=O)C3COC(C)(C)O3)c(I)c(C(C#N)O[Si](C)(C)C)c2I)O1 (centres unmarked) [Example 113, 5-(2,2-Dimethyl-1,3-dioxolane-4-carbamido)-3-(O-trimethylsilyl-cyanomethyl)-N-(2,2-dimethyl-1,3-dioxolane-4-methyl)-2,4,6-triiodobenzamide]
[4]
  Viscosity: 7.5 mPas

## NC(=O)C(O)c1c(I)c(NC(=O)C(O)CO)c(I)c(C(=O)NCC(O)CO)c1I (centres unmarked) [Example 114, 5-(2,3-Dihydroxypropionyl)amino-3-N-(2,3-dihydroxypropyl)carbamido-2,4,6-triiodomandeloamide]
[4]
  Viscosity: 10.1 mPas

## CN(C(=O)CO)c1c(I)c(C(=O)NCC(O)CO)c(I)c(C(=O)NCC(O)CO)c1I (centres unmarked) [Iomeprol]
[5]
  Viscosity: 15.4 mPas

## N,N′-Bis(2,3-dihydroxybutyryl)-3,5-diamino-2,4,6-triiodomandeloamide [Example 101]
[4]
  Viscosity: 13.4 mPas

## N-(2R,3S,4-Trihydroxybutyryl)-N′-hydroxyacetyl-3,5-diamino-2,4,6-triiodomandeloamide [Example 100]
[4]
  Viscosity: 9.7 mPas
